According to paper PMC11184945, “Inhibition mechanism investigation of quercetagetin as a potential tyrosinase inhibitor” (Frontiers in Chemistry, 2024):

Molecular target: T1, tyrosinase (mushroom) (Agaricus bisporus, UniProt C7FF04)
T1 construct: gene PPO3
Experiment: L-dopa oxidation assay at […] nm with Lineweaver-Burk kinetics (Ki […], Kis […]); static fluorescence quenching, CD
Type: biochemical

T1 sequence (C7FF04 2-392): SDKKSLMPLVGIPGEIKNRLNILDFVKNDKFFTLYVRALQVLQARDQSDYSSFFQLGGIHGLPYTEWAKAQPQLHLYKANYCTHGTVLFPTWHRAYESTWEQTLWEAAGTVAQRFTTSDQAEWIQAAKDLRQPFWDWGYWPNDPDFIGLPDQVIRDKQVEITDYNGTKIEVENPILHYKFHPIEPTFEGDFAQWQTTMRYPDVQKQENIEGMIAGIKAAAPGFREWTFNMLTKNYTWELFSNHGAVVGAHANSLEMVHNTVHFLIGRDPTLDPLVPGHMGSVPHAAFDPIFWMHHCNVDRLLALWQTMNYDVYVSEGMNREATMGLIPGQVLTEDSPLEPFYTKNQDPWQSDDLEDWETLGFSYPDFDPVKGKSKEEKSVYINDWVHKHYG

## O=c1c(O)c(-c2ccc(O)c(O)c2)oc2cc(O)c(O)c(O)c12 [quercetagetin, 3,3′,4′,5,6,7-hexahydroxyflavone]
  IC50: 190 ± 10 µM
